From the NIST ThermoML archive (doi:10.1016/j.tca.2015.02.020)

Assay: molar heat capacity at constant pressure; xn = mol fraction of the nth substance listed
Conditions: 101 kPa, Small sample (50 mg) DSC

NCCO [2-aminoethan-1-ol] + O
Conditions	molar heat capacity at constant pressure [J/K/mol]
125.88 K, Glass, x1 = 0.19	25.67
126.5 K, Glass, x1 = 0.31	30.11
126.8 K, Glass, x1 = 0.73	44.51
126.93 K, Glass, x1 = 0.73	46.98
127.09 K, Glass, x1 = 0.23	27.92
127.56 K, Glass, x1 = 0.19	25.67
127.58 K, Glass, x1 = 0.23	28.2
128.65 K, Glass, x1 = 0.31	31.05
130.53 K, Glass, x1 = 0.19	28.03
131.15 K, Glass, x1 = 0.31	31.68
131.46 K, Glass, x1 = 0.73	45.5
131.76 K, Glass, x1 = 0.73	48.96
131.91 K, Glass, x1 = 0.31	31.68
131.92 K, Glass, x1 = 0.23	29.6
132.24 K, Glass, x1 = 0.23	29.6
132.38 K, Glass, x1 = 0.19	26.72
135.04 K, Glass, x1 = 0.73	49.95
135.19 K, Glass, x1 = 0.31	32.62
135.2 K, Glass, x1 = 0.19	30.13
135.2 K, Glass, x1 = 0.23	30.71
135.66 K, Glass, x1 = 0.19	27.77
136.91 K, Glass, x1 = 0.23	31.55
136.92 K, Glass, x1 = 0.31	33.88
137.23 K, Glass, x1 = 0.73	46.98
139.88 K, Glass, x1 = 0.19	33.27
141.59 K, Glass, x1 = 0.23	34.34
141.59 K, Glass, x1 = 0.31	36.07
141.6 K, Glass, x1 = 0.73	52.42
141.75 K, Glass, x1 = 0.23	32.67
141.75 K, Glass, x1 = 0.31	34.19
141.91 K, Glass, x1 = 0.73	47.97
142.22 K, Glass, x1 = 0.19	29.34
144.56 K, Glass, x1 = 0.19	38.25
144.88 K, Glass, x1 = 0.73	53.91
145.03 K, Glass, x1 = 0.31	35.13
145.04 K, Glass, x1 = 0.23	34.06
145.51 K, Glass, x1 = 0.19	30.91
146.28 K, Glass, x1 = 0.23	39.37
146.28 K, Glass, x1 = 0.31	40.15
146.6 K, Glass, x1 = 0.73	49.95
151.3 K, Glass, x1 = 0.73	52.92
151.46 K, Glass, x1 = 0.73	56.38
151.61 K, Glass, x1 = 0.31	39.21
154.75 K, Glass, x1 = 0.73	57.86
158.65 K, Liquid, x1 = 0.19	63.66
160.38 K, Liquid, x1 = 0.23	65.61
161.96 K, Liquid, x1 = 0.19	60.52
163.35 K, Liquid, x1 = 0.19	64.19
164.78 K, Liquid, x1 = 0.31	75.91
165.07 K, Liquid, x1 = 0.23	65.61
165.08 K, Liquid, x1 = 0.31	73.71
165.25 K, Liquid, x1 = 0.19	60.78
168.06 K, Liquid, x1 = 0.19	64.45
169.79 K, Liquid, x1 = 0.23	65.61
169.79 K, Liquid, x1 = 0.31	73.4
170.12 K, Liquid, x1 = 0.73	109.3
171.22 K, Liquid, x1 = 0.73	122.65
171.38 K, Liquid, x1 = 0.23	68.96
171.38 K, Liquid, x1 = 0.31	75.59
171.85 K, Liquid, x1 = 0.19	61.57
172.77 K, Liquid, x1 = 0.19	64.97
174.5 K, Liquid, x1 = 0.23	65.61
174.5 K, Liquid, x1 = 0.31	73.4
174.52 K, Liquid, x1 = 0.73	121.66
174.68 K, Liquid, x1 = 0.23	69.52
174.68 K, Liquid, x1 = 0.31	75.59
174.83 K, Liquid, x1 = 0.73	109.3
175.15 K, Liquid, x1 = 0.19	61.83
177.48 K, Liquid, x1 = 0.19	65.23
179.21 K, Liquid, x1 = 0.23	65.89
179.21 K, Liquid, x1 = 0.31	73.4
179.55 K, Liquid, x1 = 0.73	109.79
181.12 K, Liquid, x1 = 0.73	122.15
181.28 K, Liquid, x1 = 0.23	70.36
181.28 K, Liquid, x1 = 0.31	76.22
181.75 K, Liquid, x1 = 0.19	62.35
182.19 K, Liquid, x1 = 0.19	66.02
183.93 K, Liquid, x1 = 0.23	66.17
183.93 K, Liquid, x1 = 0.31	73.71
184.27 K, Liquid, x1 = 0.73	109.79
184.43 K, Liquid, x1 = 0.73	122.15
184.58 K, Liquid, x1 = 0.31	76.22
184.59 K, Liquid, x1 = 0.23	70.64
186.92 K, Liquid, x1 = 0.19	66.54
188.65 K, Liquid, x1 = 0.23	66.73
188.65 K, Liquid, x1 = 0.31	74.02
188.98 K, Liquid, x1 = 0.73	110.28
191.04 K, Liquid, x1 = 0.73	120.18
191.19 K, Liquid, x1 = 0.31	77.16
191.2 K, Liquid, x1 = 0.23	71.48
191.64 K, Liquid, x1 = 0.19	67.07
193.38 K, Liquid, x1 = 0.23	67.57
193.38 K, Liquid, x1 = 0.31	74.65
193.72 K, Liquid, x1 = 0.73	111.27
194.5 K, Liquid, x1 = 0.31	77.47
194.51 K, Liquid, x1 = 0.23	72.04
196.37 K, Liquid, x1 = 0.19	67.85
198.1 K, Liquid, x1 = 0.23	68.13
198.1 K, Liquid, x1 = 0.31	74.97
198.44 K, Liquid, x1 = 0.73	112.26
201.09 K, Liquid, x1 = 0.19	68.9
201.13 K, Liquid, x1 = 0.23	72.59
201.13 K, Liquid, x1 = 0.31	78.73
202.83 K, Liquid, x1 = 0.23	68.96
202.84 K, Liquid, x1 = 0.31	75.28
203.18 K, Liquid, x1 = 0.73	112.76
204.44 K, Liquid, x1 = 0.23	72.87
204.44 K, Liquid, x1 = 0.31	79.36
205.82 K, Liquid, x1 = 0.19	69.95
207.56 K, Liquid, x1 = 0.23	69.8
207.56 K, Liquid, x1 = 0.31	76.22
207.9 K, Liquid, x1 = 0.73	113.75
210.55 K, Liquid, x1 = 0.19	71
211.06 K, Liquid, x1 = 0.31	79.98
211.07 K, Liquid, x1 = 0.23	73.71
212.29 K, Liquid, x1 = 0.23	70.92
212.29 K, Liquid, x1 = 0.31	77.16
212.64 K, Liquid, x1 = 0.73	114.74
214.38 K, Liquid, x1 = 0.23	74.55
214.38 K, Liquid, x1 = 0.31	80.61
215.29 K, Liquid, x1 = 0.19	72.31
217.03 K, Liquid, x1 = 0.23	72.04
217.03 K, Liquid, x1 = 0.31	78.1
217.38 K, Liquid, x1 = 0.73	115.23
220.03 K, Liquid, x1 = 0.19	73.62
221.01 K, Liquid, x1 = 0.31	81.87
221.76 K, Liquid, x1 = 0.23	73.15
221.77 K, Liquid, x1 = 0.31	79.36
222.11 K, Liquid, x1 = 0.73	115.72
224.33 K, Liquid, x1 = 0.31	82.81
224.77 K, Liquid, x1 = 0.19	74.66
226.51 K, Liquid, x1 = 0.23	74.27
226.52 K, Liquid, x1 = 0.31	80.3
226.86 K, Liquid, x1 = 0.73	116.22
229.51 K, Liquid, x1 = 0.19	75.97
230.97 K, Liquid, x1 = 0.23	80.69
230.97 K, Liquid, x1 = 0.31	84.38
231.24 K, Liquid, x1 = 0.23	75.67
231.25 K, Liquid, x1 = 0.31	81.24
231.6 K, Liquid, x1 = 0.73	116.22
234.25 K, Liquid, x1 = 0.19	77.02
234.28 K, Liquid, x1 = 0.31	85.32
234.29 K, Liquid, x1 = 0.23	81.25
235.99 K, Liquid, x1 = 0.23	76.78
236 K, Liquid, x1 = 0.31	82.81
236.34 K, Liquid, x1 = 0.73	116.71
238.99 K, Liquid, x1 = 0.19	78.07
240.72 K, Liquid, x1 = 0.23	78.18
240.73 K, Liquid, x1 = 0.31	84.06
240.93 K, Liquid, x1 = 0.23	82.93
240.93 K, Liquid, x1 = 0.31	87.2
241.08 K, Liquid, x1 = 0.73	118.2
241.4 K, Liquid, x1 = 0.19	78.86
243.73 K, Liquid, x1 = 0.19	79.12
244.25 K, Liquid, x1 = 0.23	84.04
244.25 K, Liquid, x1 = 0.31	88.14
244.73 K, Liquid, x1 = 0.19	80.17
245.47 K, Liquid, x1 = 0.23	79.57
245.47 K, Liquid, x1 = 0.31	85.63
245.83 K, Liquid, x1 = 0.73	120.18
247.57 K, Liquid, x1 = 0.23	85.16
247.57 K, Liquid, x1 = 0.31	89.08
247.58 K, Liquid, x1 = 0.19	81.21
248.48 K, Liquid, x1 = 0.19	80.17
250.22 K, Liquid, x1 = 0.23	80.69
250.23 K, Liquid, x1 = 0.31	86.57
250.58 K, Liquid, x1 = 0.73	122.15
250.9 K, Liquid, x1 = 0.23	86.28
250.9 K, Liquid, x1 = 0.31	90.02
251.37 K, Liquid, x1 = 0.19	82.79
253.23 K, Liquid, x1 = 0.19	80.95
254.22 K, Liquid, x1 = 0.31	91.28
254.23 K, Liquid, x1 = 0.23	87.11
254.7 K, Liquid, x1 = 0.19	84.1
254.97 K, Liquid, x1 = 0.23	82.37
254.98 K, Liquid, x1 = 0.31	88.14
255.33 K, Liquid, x1 = 0.73	124.13
257.98 K, Liquid, x1 = 0.19	81.74
259.72 K, Liquid, x1 = 0.23	83.48
259.72 K, Liquid, x1 = 0.31	89.39
260.08 K, Liquid, x1 = 0.73	126.11
260.88 K, Liquid, x1 = 0.23	89.07
260.88 K, Liquid, x1 = 0.31	93.16
261.35 K, Liquid, x1 = 0.19	86.45
262.73 K, Liquid, x1 = 0.19	82.79
264.2 K, Liquid, x1 = 0.23	90.18
264.2 K, Liquid, x1 = 0.31	94.1
264.47 K, Liquid, x1 = 0.23	84.88
264.48 K, Liquid, x1 = 0.31	90.96
264.67 K, Liquid, x1 = 0.19	87.5
264.83 K, Liquid, x1 = 0.73	128.09
267.48 K, Liquid, x1 = 0.19	83.57
269.23 K, Liquid, x1 = 0.23	86.28
269.23 K, Liquid, x1 = 0.31	92.22
269.58 K, Liquid, x1 = 0.73	130.07
270.7 K, Liquid, x1 = 0.73	140.45
270.86 K, Liquid, x1 = 0.23	91.58
270.86 K, Liquid, x1 = 0.31	95.98
271.34 K, Liquid, x1 = 0.19	89.86
272.24 K, Liquid, x1 = 0.19	84.36
274.02 K, Liquid, x1 = 0.23	87.67
274.02 K, Liquid, x1 = 0.31	93.79
274.07 K, Liquid, x1 = 0.73	140.95
274.23 K, Liquid, x1 = 0.23	92.42
274.23 K, Liquid, x1 = 0.31	96.61
274.39 K, Liquid, x1 = 0.73	132.04
274.73 K, Liquid, x1 = 0.19	90.65
277.12 K, Liquid, x1 = 0.19	84.88
278.94 K, Liquid, x1 = 0.23	88.79
278.94 K, Liquid, x1 = 0.31	95.04
279.3 K, Liquid, x1 = 0.73	133.53
280.95 K, Liquid, x1 = 0.73	141.44
281.11 K, Liquid, x1 = 0.23	93.26
281.11 K, Liquid, x1 = 0.31	97.86
281.61 K, Liquid, x1 = 0.19	91.69
282.05 K, Liquid, x1 = 0.19	85.67
283.85 K, Liquid, x1 = 0.23	89.91
283.85 K, Liquid, x1 = 0.31	96.29
284.22 K, Liquid, x1 = 0.73	134.02
284.4 K, Liquid, x1 = 0.73	141.44
284.56 K, Liquid, x1 = 0.23	93.26
284.56 K, Liquid, x1 = 0.31	97.86
285.05 K, Liquid, x1 = 0.19	91.96
